From ChEMBL document CHEMBL5233241, “A medicinal chemistry perspective of drug repositioning: Recent advances and challenges in drug discovery” (Eur J Med Chem, 2020)
Where a name gives a salt, the structure may show the parent alone.

Tests used:
Plasmodium = assay: Antimalarial activity against Plasmodium; assay type: functional, organism-based
[1] = tested on: Middle East respiratory syndrome-related coronavirus; assay: Antiviral activity against MERS-CoV/KOR/KNIH/002_05_2015 infected in human Huh-7 cells assessed as reduction in virus-induced cytopathic effect incubated for 3 days by CellTiter 96 aqueous one solution cell proliferation assay; assay type: functional, organism-based; conditions: KOR/KNIH/002_05_2015, Huh-7, 72 h
[2] = Cytotoxicity against human Huh-7 cells; assay type: toxicity, cell-based
Plasmodium falciparum = assay: Antimalarial activity against Plasmodium falciparum W2; assay type: functional, organism-based
Tyrosinase = target: T1, Tyrosinase (Agaricus bisporus, UniProt O42713); assay: Inhibition of mushroom tyrosinase
T1 sequence (O42713 whole entry): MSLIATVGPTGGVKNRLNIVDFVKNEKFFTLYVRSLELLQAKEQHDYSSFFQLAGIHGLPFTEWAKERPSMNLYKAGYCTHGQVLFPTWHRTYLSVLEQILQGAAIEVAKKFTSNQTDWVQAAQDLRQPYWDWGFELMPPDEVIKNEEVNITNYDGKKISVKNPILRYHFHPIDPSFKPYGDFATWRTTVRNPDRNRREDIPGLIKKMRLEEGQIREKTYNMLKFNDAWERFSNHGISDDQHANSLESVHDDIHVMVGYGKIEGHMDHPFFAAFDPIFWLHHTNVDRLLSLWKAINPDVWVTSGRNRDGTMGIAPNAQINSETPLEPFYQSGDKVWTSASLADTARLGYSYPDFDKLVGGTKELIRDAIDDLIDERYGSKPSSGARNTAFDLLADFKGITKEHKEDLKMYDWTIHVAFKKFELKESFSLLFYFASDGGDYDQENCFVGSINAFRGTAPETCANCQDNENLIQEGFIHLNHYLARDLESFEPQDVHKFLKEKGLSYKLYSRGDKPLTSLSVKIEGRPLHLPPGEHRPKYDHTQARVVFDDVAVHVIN

[3] = Inhibition of melanin production in mouse B16 cells assessed as reduction in melanin content at up to 20 uM relative to control; assay type: functional
Mus musculus [4] = assay: Anti-alzheimer activity against young APP/PS1 mouse model assessed as reduction in amyloid beta (1 to 40 residues) level at 100 mg/kg, po administered daily and measured for 14 days; assay type: functional; design: scale not given: the % may be the effect or the level left; conditions: time 14 day
Mus musculus [5] = assay: Anti-alzheimer activity against old APP/PS1 mouse model assessed as reduction in amyloid beta (1 to 40 residues) level at 100 mg/kg, po administered daily and measured for 14 days; assay type: functional; design: scale not given: the % may be the effect or the level left; conditions: time 14 day
Mus musculus [6] = assay: Anti-alzheimer activity against young APP/PS1 mouse model assessed as reduction in amyloid beta (1 to 42 residues) level at 100 mg/kg, po administered daily and measured for 14 days; assay type: functional; design: scale not given: the % may be the effect or the level left; conditions: time 14 day
Mus musculus [7] = assay: Anti-alzheimer activity against old APP/PS1 mouse model assessed as reduction in amyloid beta (1 to 42 residues) level at 100 mg/kg, po administered daily and measured for 14 days; assay type: functional; design: scale not given: the % may be the effect or the level left; conditions: time 14 day
Mus musculus [8] = assay: Anti-alzheimer activity against APP/PS1 mouse model assessed as reduction in insoluble amyloid beta level at 100 mg/kg, po administered daily and measured for 90 days; assay type: functional; design: scale not given: the % may be the effect or the level left; conditions: time 90 day
[9] = tested on: Middle East respiratory syndrome-related coronavirus; assay: Antiviral activity against MERS-CoV isolate EMC/2012 infected in human Huh-7 cells assessed as reduction in virus-induced cytopathic effect incubated for 2 days by MTS assay; assay type: functional, organism-based; conditions: EMC/2012, Huh-7, 48 h
SARS-CoV [10] = assay: Antiviral activity against SARS-CoV isolate Frankfurt-1 infected in Vero E6 cells assessed as reduction in virus-induced cytopathic effect incubated for 3 days by MTS assay; assay type: functional, organism-based; conditions: Severe acute respiratory syndrome-related coronavirus, Frankfurt-1, Vero C1008, 72 h
Human coronavirus 229E [11] = assay: Antiviral activity against hCoV-229E expressing GFP infected in human Huh-7 cells assessed as reduction in virus-induced cytopathic effect incubated for 24 hrs by MTS assay; assay type: functional, organism-based; conditions: Huh-7, 24 h
[12] = Inhibition of Wnt signalling in HEK293T cells; assay type: cell-based; conditions: Homo sapiens, HEK-293T
[13] = Inhibition of Wnt signalling in human BT-20 cells; assay type: cell-based
Mus musculus [14] = assay: Anti-alzheimer activity against APP/PSEN1 transgenic mouse model assessed as fold reduction in amyloid beta plaques at 10 mg/kg administered intranasally every other day for 2 months; assay type: functional; conditions: route nas, 1460 h
[15] = Cytotoxicity against human COV318 cells incubated for 120 hrs by SRB assay; assay type: functional, cell-based; conditions: COV318, 120 h
[16] = Cytotoxicity against human COV362 cells incubated for 120 hrs by SRB assay; assay type: functional, cell-based; conditions: COV362, 120 h
OVCAR-3 = assay: Cytotoxicity against human OVCAR-3 cells incubated for 72 hrs by SRB assay; assay type: functional, cell-based; conditions: OVCAR-3, 72 h
OVCAR-4 = assay: Cytotoxicity against human OVCAR-4 cells incubated for 72 hrs by SRB assay; assay type: functional, cell-based; conditions: OVCAR-4, 72 h
[17] = Cytotoxicity against human OVSAHO cells incubated for 72 hrs by SRB assay; assay type: functional, cell-based
Dengue virus = assay: Antiviral activity against DENV assessed as inhibition of viral replication relative to control; assay type: functional
SARS-CoV [18] = assay: Antiviral activity against SARS-CoV; assay type: functional, organism-based; conditions: Severe acute respiratory syndrome-related coronavirus
Human coronavirus 229E [19] = assay: Antiviral activity against hCoV-229E; assay type: functional, organism-based
B16-F10 = assay: Inhibition of melanin production in mouse B16-F10 cells assessed as reduction in melanin content at 50 uM relative to control; assay type: functional

CCCc1nc2c(C)cc(-c3nc4ccccc4n3C)cc2n1Cc1ccc(-c2ccccc2C(=O)O)cc1
IC50 (Plasmodium): 0.025 µM

COc1ccc(C2=NC(c3ccc(Cl)cc3)C(c3ccc(Cl)cc3)N2C(=O)N2CCNC(=O)C2)c(OC(C)C)c1 (stereo unspecified)
EC50 [1]: 36.9 µM
CC50 [2]: 26.8 µM

CCN(CC)Cc1cc(Nc2ccnc3cc(Cl)ccc23)ccc1O
EC50 [1]: 2.1 µM

COc1ccc(-c2nc(-c3cc(C(F)(F)F)cc(C(F)(F)F)c3)n(Cc3ccc(C(N)=O)cc3)c2-c2ccc(OC)cc2)cc1
EC50 (Plasmodium falciparum): 4.5 µM

COc1ccc2[nH]c([S@@+]([O-])Cc3ncc(C)c(OC)c3C)nc2c1
IC50 (Plasmodium): 0.29 µM

N=C(N)c1ccc(OCCCCCOc2ccc(C(=N)N)cc2)cc1
IC50 (Plasmodium): < 0.5 µM

CC(=O)c1ccc2c(c1)N(CCCN1CCN(CCO)CC1)c1ccccc1S2 [ACETOPHENAZINE]
EC50 [1]: 11.2 µM
CC50 [2]: 23.6 µM

N=C(N)N/N=C1C=C/C(=N\NC(N)=S)C=C\1 [AMBAZONE]
IC50 (Tyrosinase): 15 µM
inhibition (INH) [3]: 20%

CC(=O)Nc1ccc(/C=N/NC(N)=S)cc1 [AMITHIOZONE]
IC50 (Tyrosinase): 14 µM

Cn1cnc([N+](=O)[O-])c1Sc1ncnc2nc[nH]c12 [AZATHIOPRINE]
Ki (Tyrosinase): > 1000 µM

C=C(c1ccc(C(=O)O)cc1)c1cc2c(cc1C)C(C)(C)CCC2(C)C [BEXAROTENE]
Activity (Mus musculus [4]): 25%
Activity (Mus musculus [5]): 25%
Activity (Mus musculus [6]): 25%
Activity (Mus musculus [7]): 25%
Activity (Mus musculus [8]): 30%

CCOC(=O)n1ccn(C)c1=S [CARBIMAZOLE]
IC50 (Tyrosinase): 186 µM

CCN(CC)CCCC(C)Nc1ccnc2cc(Cl)ccc12 (stereo unspecified) [CHLOROQUINE]
EC50 [9]: 3 µM
EC50 (SARS-CoV [10]): 4.1 µM

CN(C)CCCN1c2ccccc2Sc2ccc(Cl)cc21 [CHLORPROMAZINE]
EC50 [9]: 4.9 µM
EC50 (SARS-CoV [10]): 8.8 µM
EC50 (Human coronavirus 229E [11]): 2.5 µM

CN1CCC[C@@H]1CCO[C@](C)(c1ccccc1)c1ccc(Cl)cc1 [CLEMASTINE FUMARATE]
IC50 (Plasmodium): 2.2 µM

CC(C)/N=c1\cc2n(-c3ccc(Cl)cc3)c3ccccc3nc-2cc1Nc1ccc(Cl)cc1 [CLOFAZIMINE]
IC50 [12]: 6 µM
IC50 [13]: 7 µM

C/C=C/C[C@@H](C)[C@@H](O)[C@H]1C(=O)N[C@@H](CC)C(=O)N(C)CC(=O)N(C)[C@@H](CC(C)C)C(=O)N[C@@H](C(C)C)C(=O)N(C)[C@@H](CC(C)C)C(=O)N[C@@H](C)C(=O)N[C@H](C)C(=O)N(C)[C@@H](CC(C)C)C(=O)N(C)[C@@H](CC(C)C)C(=O)N(C)[C@@H](C(C)C)C(=O)N1C [CYCLOSPORINE]
IC50 (Plasmodium): 1.7 µM

CN(C)CC/C=C1\c2ccccc2CSc2ccccc21 [DOTHIEPIN HYDROCHLORIDE]
EC50 [1]: 3.4 µM
CC50 [2]: 28.9 µM

CCN(CC)CCOc1ccc(/C(=C(/Cl)c2ccccc2)c2ccccc2)cc1 [ENCLOMIPHENE CITRATE]
IC50 (Plasmodium): 0.22 µM

OCCOCCN1CCN(C(c2ccccc2)c2ccc(Cl)cc2)CC1 (stereo unspecified) [HYDROXYZINE]
EC50 [1]: 14.4 µM
CC50 [2]: > 50 µM

COc1ccc2c(c1)N(C[C@H](C)CN(C)C)c1ccccc1S2 [LEVOMEPROMAZINE]
EC50 [1]: 2.5 µM
CC50 [2]: 24.5 µM

CN(C)C(=O)C(CCN1CCC(O)(c2ccc(Cl)cc2)CC1)(c1ccccc1)c1ccccc1 [LOPERAMIDE]
EC50 [9]: 4.8 µM
EC50 (SARS-CoV [10]): 5.9 µM
EC50 (Human coronavirus 229E [11]): 4 µM

Cc1cccc(C)c1OCC(=O)N[C@@H](Cc1ccccc1)[C@@H](O)C[C@H](Cc1ccccc1)NC(=O)[C@H](C(C)C)N1CCCNC1=O [LOPINAVIR]
EC50 [9]: 8 µM

CCCCc1nc(Cl)c(CO)n1Cc1ccc(-c2ccccc2-c2nnn[nH]2)cc1 [LOSARTAN]
fold change (FC) (Mus musculus [14]): 3.7

Sc1ncnc2nc[nH]c12 [MERCAPTOPURINE ANHYDROUS]
Ki (Tyrosinase): 16 µM

Cn1cc[nH]c1=S [METHIMAZOLE]
IC50 (Tyrosinase): 114 µM

Cc1cc(=O)[nH]c(=S)[nH]1 [METHYLTHIOURACIL]
IC50 (Tyrosinase): 142 µM

COc1ccc2[nH]c([S+]([O-])Cc3ncc(C)c(OC)c3C)nc2c1 (stereo unspecified) [OMEPRAZOLE]
IC50 (Plasmodium): < 1 µM

C[C@]12C=CC(=O)C=C1CC[C@@H]1[C@@H]2[C@@H](O)C[C@@]2(C)[C@H]1CC[C@]2(O)C(=O)CO [PREDNISOLONE]
IC50 [15]: 1.1 µM
IC50 [16]: 1.1 µM
IC50 (OVCAR-3): 1.1 µM
IC50 (OVCAR-4): 1.1 µM
IC50 [17]: 1.1 µM

CCCc1cc(=O)[nH]c(=S)[nH]1 [PROPYLTHIOURACIL]
IC50 (Tyrosinase): 170 µM

C=C[C@H]1CN2CC[C@H]1C[C@H]2[C@H](O)c1ccnc2ccc(OC)cc12 [QUININE]
inhibition (INH) (Dengue virus): 80%

O=C(c1ccc(OCCN2CCCCC2)cc1)c1c(-c2ccc(O)cc2)sc2cc(O)ccc12 [RALOXIFENE HYDROCHLORIDE]
IC50 (Plasmodium): < 0.5 µM

CN1CCN(CCOc2cc(OC3CCOCC3)c3c(Nc4c(Cl)ccc5c4OCO5)ncnc3c2)CC1 [SARACATINIB]
CC50 [2]: > 50 µM
EC50 (SARS-CoV [18]): 2.4 µM
EC50 (Human coronavirus 229E [19]): 5.1 µM

CN1CCN(c2nc(C3=C(c4c[nH]c5ccccc45)C(=O)NC3=O)c3ccccc3n2)CC1 [SOTRASTAURIN]
EC50 [1]: 9.7 µM
CC50 [2]: > 50 µM

Nc1nc2nc[nH]c2c(=S)[nH]1 [THIOGUANINE]
Ki (Tyrosinase): 52 µM
inhibition at 50 µM (B16-F10): 57%

OC[C@H]1O[C@@H](n2cnc3c(S)ncnc32)[C@H](O)[C@@H]1O [THIOINOSINE]
Ki (Tyrosinase): 8 µM

O=c1cc[nH]c(=S)[nH]1 [THIOURACIL]
IC50 (Tyrosinase): 128 µM
